Values of other authors, collected in patent US20120263802A1 (priority 2003, published 2012).

How the values were obtained:
[1] = tested on: VEGF RTK
[2] = tested on: range of models; settings: once-daily oral administration; Wedge et al, Proc. Am. Assoc. Canc. Res. 2001; 42: abstract 3126

Structure (SMILES): COc1cc2c(Nc3ccc(Br)cc3F)ncnc2cc1OCC1CCN(C)CC1 [ZD6474, 4-(4-bromo-2-fluoroanilino)-6-methoxy-7-(1-methylpiperidin-4-ylmethoxy)quinazoline]
- inhibition of VEGF RTK [1]: potent inhibitor
- anti-tumour activity [2]: broad-spectrum anti-tumour activity
